Data on one compound can be found in patent US20090291857A1, “METHODS TO IDENTIFY INHIBITORS OF THE UNFOLDED PROTEIN RESPONSE” (THE BOARD OF TRUSTEES OF THE LELAND STANFORD JUNIOR …, priority 2006, published 2009).

One test concerns CHOP/GADD153. In words: CHOP/GADD153 expression in hypoxic HT1080 cells (Western blot). The settings on record: 2.5 μM, hypoxia 6-12 hours. It counts as cell-based, human. The protocol: A. Effect of irestatin 9389 on PERK and ATF6 pathways. HT1080 cells were treated with vehicle alone (lanes 1-4) or 2.5 μM irestatin 9389 (lanes 5-8) and cultured under aerobic conditions for 18 hours (N) or shifted to hypoxia for the indicated times. Protein lysates were analyzed by Western blot analysis using antisera specific for ATF6 (top), CHOP/GADD153 (middle) or actin (bottom). Arrow indicates the cleaved, transcriptionally active form of ATF6. B. Cleavage of caspase-3 in irestatin-treated cells under hypoxia. HT1080 cells were cultured in normoxia (N) or under hypoxia for 36 hours (H 36) in absence or presence of irestatin 9389 (2.5 μM). Arrows indicate proteolytically cleaved caspase-3. C. Colony formation assay. HT1080 cells were treated as in B under normoxia (N) or hypoxia for 48 hours (H 48). Cells were harvested, counted, and allowed to grow under normal culture conditions for 11-12 days. Colonies were visualized with crystal violet staining. D. Quantification of clonogenic survival assay. Values represent the mean+/−SEM from at least 4 independent experiments. E. TUNEL staining of cells treated as in C. F. Quantification of TUNEL-positive cells. Values represent the mean+/−SEM from at least 3 experiments. […] Cells were harvested at the indicated times and counted by hemocytometer. Values represent the mean calculated from triplicate experiments +/−SEM. […]
(Immunoblotting shows a protein as a band on a membrane.)

Another test deals with XBP-luciferase reporter. In words: In vivo bioluminescence imaging of XBP-luciferase tumor xenografts. On the set-up: species or system mouse. The procedure: HT1080 fibrosarcoma cells (2×10^6) stably expressing the XBP-luciferase reporter were implanted s.c. into severe combined immune deficient (SCID) mice. Ten minutes prior to imaging, mice were injected i.p. with D-luciferin (150 mg/kg) solubilized in PBS. Optical bioluminescence imaging was performed using the IVIS charged-coupled device camera system (Caliper Life Sciences, Hopkinton, Mass.). Mice were imaged for 1-4 minutes per acquisition scan. Signal intensities were analyzed using Living Image software (Caliper).
A. Irestatin 9389 impairs IREla activity in implanted tumor xenografts. Equal numbers (2×10^6) of XBP-luciferase or CMV-luciferase reporter cells were implanted s.c. into SCID mice. After one week, mice were treated with irestatin 9389 (50 mg/kg), followed by optical bioluminescence imaging. B. Inhibition of tumor growth by irestatin 9389. […] Tumor volumes were calculated based on caliper measurements taken every 3-5 days. Data points represent the mean volume calculated from at least 7 tumors per group, with SEM shown in one direction. […]
The increased sensitivity of irestatin-treated cells to hypoxic stress in vitro indicate that selective inhibition of IRE1α signaling could impact tumor growth. […] In contrast, XBP-1s was not detected in normal pancreas specimens (0/20), and infrequently observed in chronic pancreatitis (1/29) (FIG. 15). […]

`Cc1csc(NC(=O)CSc2nc3c(c(C(F)(F)F)c2C#N)CCC3)n1` [Compound 9389]: the “expression of CHOP/GADD153” value with CHOP/GADD153 is “increased”. Moreover, in the test with XBP-luciferase reporter (SCID mice, single doses of 50-60 mg/kg), the “duration of robust inhibition of the XBP-luciferase reporter after injection” value lay in the range of 6 to 8 h. The “time at which XBP-luciferase signal returned to basal levels” value in the test on XBP-luciferase reporter (after treatment) was no more than 24 h.
